This experiment relates to human platelet rich plasma. In kind it is cell-based. The procedure: Platelet aggregation assay--Aggregation studies using human platelet rich plasma were performed as previously described (20). Briefly, blood from human volunteers who had not taken any antiplatelet drugs in the previous two weeks was collected into 1/10th volume of CCD buffer (100 mM sodium citrate, 136 mM glucose, pH 6.5). The blood was centrifuged for 3 min at 1000×g and the platelet rich plasma (PRP) was transferred to a plastic tube with a plastic pipet. The PRP was adjusted to 2×10^8 platelets/ml with platelet poor plasma (prepared by centrifuging anti-coagulated blood at 2000×g for 15 min) and placed on ice. PRP and control (saline) or test peptides (500 μl) were incubated with 5 μM ADP at 37° C. in a silanized glass cuvette with stirring (900 RPM). The extent of aggregation was monitored with a Payton aggregometer 2 min after the addition of ADP. Inhibition of aggregation for each sample was determined using the following formula: % Inhibition=[…], where Tbase =% of light transmission in PRP, Tagg =% of light transmission in the aggregated PRP sample containing the saline control for peptides, and Tpep =% of light transmission in the aggregated PRP sample containing the peptide inhibitor.

No end group written: not given here.

In the case of HHLGGAKGAGDV, the “Platelet ID50 (inhibition of platelet aggregation)” value is more than 100 µM.

Source of the values: patent US5225531A, “Hexapeptide Lys Gly Ala Gly Asp Val” (Washington University, priority 1992, dated 1993).
